Tested on: MDA-MB-231 xenografts
Assay: Therapeutic efficacy in MDA-MB-231 xenografts
Type: in vivo, mouse
Conditions: tail vein injection on days 0 and 3 (29.6 MBq each for radioactive groups), end of treatment (26 days), mean ± SD, n = 5
Experimental: Five-week-old female athymic BALB/c nude mice (Shanghai Slaccas Experiment Animal Corp., Shanghai, China) were used in our study. Mouse xenograft models of MDA-MB-231, 4T1, and SK-BR-3 cells were produced by the subcutaneous injection of 5 × 10^6 cells (suspended in 150 μL PBS) into the right axilla of each mouse. The mice were used in subsequent experiments when tumor diameter reached 0.5-0.9 cm. The study protocol was approved by the institutional review board and by the Experimental Animal Center of Ruijin Hospital affiliated to the School of Medicine of Shanghai Jiao Tong University.
Twenty mice-bearing MDA-MB-231 human BC xenografts were divided into four groups of five animals. Group 1 was injected with ^131I-Var3-pHLIP in the tail vein on days 0 and 3 (29.6 MBq each day). Groups 2, 3, and 4 were injected with the same volume of Var3-pHLIP, ^131I (29.6 MBq), and saline solution, respectively. Tumor size was measured every 2 to 4 days postinjection (pi) for 26 days using a caliper. Tumor volumes (V, […]) were calculated using the formula: V = (a × b^2)/2, where a and b are tumor length and width, respectively. Relative tumor volumes were calculated as V/V0 (V0, tumor volume before treatment). The body weight of mice was also determined.

ACDDQNPWRAYLDLLFPTDTLLLDLLWK [Var3-pHLIP]
relative tumor volume (V/V0): 4.17 ± 0.51

— article PMC9281440, “In Vivo Distribution and Therapeutic Efficacy of Radioiodine-Labeled pH-Low Insertion Peptide Variant 3 in a Mouse Model of Breast Cancer” (Molecular Imaging, 2022)
